Reference: patent US9642819B2, “Low dosage serotonin 5-HT2A receptor agonist to suppress inflammation” (BOARD OF SUPERVISORS OF LOUISIANA STATE UNIVERSITY AND …, priority 2008, dated 2017)
pEC50, pIC50: −log10 of the molar value. “Also recorded” adds a separate entry of the source. Where two headings read alike, the source gives them in different places.

What was measured:
[1] = tested on: ICAM-1, VCAM-1, and IL-6 gene expression; assay: TNF-α induced proinflammatory gene expression (ICAM-1, VCAM-1, IL-6) by Q-RT-PCR in RASM cells; assay type: cell-based, rat
Description: RASM cells and treatment. Rat aortic smooth muscle (RASM) cells were isolated from adult 180 g male Sprague-Dawley rats and provided by the Cell and Molecular Core Facility in the Department of Pharmacology at LSUHSC-NO. Isolated RASM cells were grown in M-199 media containing 10% fetal bovine serum (Gibco), 100 units/mL penicillin, and 100 µg/mL streptomycin, and incubated at 37° C. in 5% CO2. Cells for all assays were used between passages 3 and 5. Prior to treatments, cells were grown in M-199 media with 10% fetal bovine serum (FBS) until 30-50% confluent. For most assays, cells were treated with (R)-DOI, or other drugs as indicated, at specific concentrations for 24 hours, followed by TNF-α (10 ng/ml) and (R)-DOI at the same pretreatment concentrations in fresh M-199 media. After another 24 hours, the cells were scraped, pelleted, and processed for RNA.
RNA isolation and Quantitative Realtime-PCR. RNA was extracted from cells using Illustra RNAspin Mini kits from GE Healthcare Life Sciences (Piscataway, N.J.) following protocols supplied by the manufacturer. First strand cDNA was generated using the ImProm-II cDNA synthesis kit (Promega) following the manufacturers protocols. Q-RT-PCR was performed using the ProbeLibrary system from Roche (Indianapolis, Ind.) in combination with the HotStart-IT probe qpcr master mix from USB Biological (Cleveland, Ohio) following manufactures protocols.
Primers were synthesized by IDT (Coralville, Iowa). ProbeLibrary probes from Roche were: U3, U74, U13, U106, U79 for 5-HT2AR, ICAM-1, VCAM-1, IL-6, and cyclophillin B, respectively. Quantitative determination of gene expression levels using a 2-step cycling protocol was performed on a MyIQ-5 Cycler (Bio-Rad, Hercules Calif.). Relative gene expression levels were calculated using the 2^[−ΔΔC(T)] method. Levels of all targets from the test samples were normalized to rat cyclophillin B expression.
To examine the effects of 5-HT2A receptor activation on TNF-α mediated proinflammatory gene expression, RASM cells were pretreated with (R)-DOI, a selective 5-HT2 receptor agonist, as described above. Dose-response curves were determined for the effects on ICAM-1, VCAM-1, and IL-6 gene expression for twelve different concentrations of (R)-DOI ranging from 0.1 pM to 100 nM, with each experiment repeated in triplicate. In FIGS. 1A-1C, the Y-axis represents a percent of TNF-α for the dose of (R)-DOI indicated on the X-axis.

[2] = target: 5-HT2A receptor (Rattus norvegicus, UniProt P14842); details: read-out: EC50 phosphoinositide turnover; standard pharmacological assay of 5-HT2A receptor activity; cited from earlier work
Chain of 5-HT2A receptor (P14842 whole entry): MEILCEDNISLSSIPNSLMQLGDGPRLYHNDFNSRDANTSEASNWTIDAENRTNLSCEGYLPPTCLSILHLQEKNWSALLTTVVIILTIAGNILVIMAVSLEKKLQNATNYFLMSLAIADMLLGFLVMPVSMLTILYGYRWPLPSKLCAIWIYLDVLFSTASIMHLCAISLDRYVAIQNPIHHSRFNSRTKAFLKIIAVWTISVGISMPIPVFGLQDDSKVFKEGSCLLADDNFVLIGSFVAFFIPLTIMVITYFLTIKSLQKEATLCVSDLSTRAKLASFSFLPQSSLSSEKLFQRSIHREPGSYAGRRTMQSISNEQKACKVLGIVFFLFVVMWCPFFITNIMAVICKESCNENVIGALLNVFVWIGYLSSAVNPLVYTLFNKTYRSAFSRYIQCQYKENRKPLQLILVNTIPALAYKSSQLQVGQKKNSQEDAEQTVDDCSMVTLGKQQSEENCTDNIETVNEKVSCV

COc1cc(C[C@@H](C)N)c(OC)cc1I [(R)-DOI, (R)-1-(2,5-dimethoxy-4-iodophenyl)-2-aminopropane]
effect of pretreatment on TNF-α induced increase in proinflammatory gene expression ([1]; 1 nM prior to TNF-α 10 ng/ml): completely blocked; also recorded: completely inhibits | pIC50 ([1]; RASM cells, TNF-α 10 ng/ml, ICAM-1, VCAM-1, IL-6, read-out: IC50 for inhibition of TNF-α mediated proinflammatory markers): 10.70 to 11.00 | pIC50 ([1]; Rattus norvegicus, RASM cells, TNF-α 10 ng/ml, ICAM-1, VCAM-1, IL-6, read-out: IC50 for inhibition of TNF-α mediated proinflammatory markers): ~10.70 | pIC50 ([1]; Rattus norvegicus, read-out: IC50 in blocking TNF-α mediated inflammation): ~10.70 | potency of inhibiting inflammatory marker gene expression relative to any current drug on the market ([1]; greater): at least 100 times | potency relative to the more effective current anti-inflammatory agents ([1]; more potent): ~300 fold | effect of compound alone on baseline expression of ICAM-1, VCAM-1, IL-6 ([1]; without TNF-α, 1 nM): no effect | pEC50 [2]: 7.70 to 8.00
